# Like-named read-outs stand apart in the source and are kept apart here.
# Key:
# [1] = test system: L. infantum (MHOM/MA(BE)/67) amastigotes in primary peritoneal mouse macrophages; test: L. infantum intramacrophage amastigote assay (microscopic burden); assay type: cell-based, Leishmania infantum; conditions: 5 days, mouse macrophages as host
# Experimental: L. infantum (MHOM/MA(BE)/67 strain) amastigote were incubated for 5 days in 96-well plates with five concentrations of compound (64, 16, 4, 1, and 0.25 μM). Primary peritoneal mouse macrophages were used as host cells. Parasite burdens (i.e., the number of amastigotes per macrophage) were microscopically assessed. The results were expressed as a percentage reduction in parasite burden compared to untreated control wells, and an IC50 was calculated.
# [2] = test system: L. infantum (MHOM/MA(BE)/67) amastigotes in primary peritoneal mouse macrophages; parameters: method as in earlier work; conditions: Table 1, preliminary study; cited from earlier work
# [3] = test system: Trypanosoma brucei brucei trypomastigotes, suramin-sensitive strain (Squib 427); test: T. b. brucei growth/viability assay (resazurin); assay type: cell-based; conditions: 3 days
# Experimental: After 3 days, parasite growth was assessed fluorimetrically following the addition of resazurin. After 24 h at 37 °C, fluorescence was measured (λex = 550 nm, λem = 590 nm). The results were expressed as a percentage reduction in parasite growth/viability compared to control wells, and a 50% inhibitory concentration (IC50) was calculated.
# [4] = test system: Trypanosoma cruzi (Tulahuen CL2 β-galactosidase) amastigotes in hMRC-5SV2 cells; test: T. cruzi intracellular amastigote assay (β-galactosidase/CPRG); assay type: cell-based; conditions: intracellular amastigotes, 7 days, read-out: IC50 T. cruzi intramacrophage amastigotes (converted)
# Experimental: A nifurtimox-sensitive strain (Tulahuen CL2 β-galactosidase) in human lung fibroblast hMRC-5SV2 cells was incubated for 7 days in 96-well plates with five concentrations of compound (64, 16, 4, 1, and 0.25 μM). The parasitic burden was evaluated through the activity of the enzyme β-galactosidase on a specific chlorophenol red ß-D-galactopyranoside (CPRG) substrate. Live parasites converted the yellow-orange CPRG substrate into the red chromophore chlorophenol red, yielding a dark-red solution, which could be quantitatively measured at 540 nm after 4 h of incubation at 37 °C. The results were expressed as a percentage reduction in parasite growth/viability compared to control wells, and an IC50 was calculated.
# [5] = in vitro; conditions: human, CC50 hMRC-5 (cytotoxicity)
# Experimental: (§1) The cytotoxicity of compounds was evaluated toward human diploid embryonic lung fibroblast hMRC-5SV2 cells, derived from fetal lung tissue and first described in 1970. hMRC-5SV2 cells were cultured in 96-well plates with five concentrations of the compound (64, 16, 4, 1, and 0.25 μM). After 3 days of incubation, the cell viability was assessed fluorimetrically after the addition of resazurin, and fluorescence was measured (λex = 550 nm, λem = 590 nm). The results were expressed as a percentage reduction in cell growth/viability compared to control wells, and a 50% cytotoxic concentration (CC50) was calculated. The reference cytotoxic drugs were tamoxifen or ivermectin. Additionally, toxicity toward mouse macrophages was qualitatively observed. Three concentrations were included (64, 16, and 4 µM), and the range of toxicity was ranked from the least toxic to the most toxic compound.
# [6] = test system: WT LV9 L. donovani intramacrophage amastigotes; test: L. donovani intramacrophage amastigote assay; assay type: cell-based, Leishmania donovani; conditions: for IC99 ± SD LV9 intramacrophage amastigotes / IC90: Table S6; for IC90: read-out: IC90 ± SD LV9 intramacrophage amastigotes
# [7] = test system: HePC-R L. donovani promastigotes; test: L. donovani promastigote assay, miltefosine-resistant strain; assay type: cell-based; conditions: Leishmania donovani, read-out: IC50 ± SD HePC-R L. donovani promastigotes
# Experimental: (§2) L. donovani promastigote forms from the logarithmic phase culture were suspended to yield 10^6 cells/mL. Miltefosine was used as the antileishmanial reference compound. Compounds to be evaluated and miltefosine were distributed in the plates by making a serial dilution. The final concentrations used were between 100 µM and 50 nM. Triplicates were used for each concentration. After a 3-day incubation period at 27 °C in the dark and under a 5% CO2 atmosphere, the viability of the promastigotes was assessed using the tetrazolium-dye (MTT) colorimetric method, which measures the reduction of a tetrazolium component (MTT) into an insoluble formazan product by the mitochondria of viable cells. After the incubation of the cells with the MTT reagent, a detergent solution (Triton X100, HCl) was added to lyse the cells and dissolve the colored crystals. The absorbance at 570 nm, directly proportional to the number of viable cells, was measured using an ELISA plate reader. The results were expressed as the concentrations inhibiting parasite growth by 50% (IC50) ± SD after a 3-day incubation period.
# [8] = test system: L. donovani LV9 axenic amastigotes; test: L. donovani axenic amastigote assay (SYBR green I); assay type: cell-based, Leishmania donovani; conditions: for IC50: read-out: IC50 ± SD L. donovani axenic amastigotes; for IC99 ± SD LV9 axenic amastigotes / IC90: Table S6; for IC90: read-out: IC90 ± SD LV9 axenic amastigotes
# Experimental: L. donovani amastigote forms were suspended to yield 10^7 cells/mL. The final compound concentrations used were 100 µM, 10 µM, 1 µM, 500 nM, and 50 nM. Duplicates were used for each concentration. Cultures were incubated at 37 °C for 72 h in the dark and under a 5% CO2 atmosphere; then, the viability of the amastigotes was assessed using the SYBR® green I (Invitrogen, France) incorporation method. Parasite growth was determined by using SYBR® Green I, a dye with marked fluorescence enhancement upon contact with parasite DNA. Parasites were lysed following Direct PCReCell Genotyping without DNA isolation protocol (Euromedex, Souffelweyersheim, France). A total of […] of SYBR Green I was added to each well, and the contents were mixed. Fluorescence was measured with Mastercylcer® ep realplex (Eppendorf, Montesson, France). The fluorescence obtained was compared to those from the range obtained with different parasite densities.
# [9] = test system: macrophages
# [10] = test system: murine macrophages; test: Qualitative toxicity toward mouse macrophages; conditions: concentration at which toxicity was observed; 64, 16 and 4 µM tested
# Experimental: as §1
# [11] = test system: WT LV9 L. donovani promastigotes; test: L. donovani promastigote assay (MTT), wild type; assay type: cell-based; conditions: Leishmania donovani, 72 h, 3 days; read-out: IC50 ± SD WT LV9 L. donovani promastigotes
# Experimental: as §2
# [12] = Solubility observations (crystals in assay, insolubility in solvents); assay type: physicochemical; conditions: noted in L. donovani assay, Table S5
# [13] = test system: human diploid embryonic lung fibroblast hMRC-5SV2 cells; test: in vitro
# Experimental: as §1
# [14] = Leishmania infantum, Macrophage, 120 h
# [15] = Trypanosoma cruzi, TULAHUEN, 168 h
# [16] = Leishmania donovani, WT LV9, ± SD in Tables S5/S6, read-out: IC50 L. donovani intramacrophage amastigotes
Structure (SMILES),"IC50 [1, 14]","IC50 ([3]; Trypanosoma brucei, 72 h)","IC50 [4, 15]",CC50 at 3 days [5],"IC50 [6, 16]",IC50 [7],"IC50 ([8]; Leishmania donovani, LV9)",observed macrophage death / lysis observed at [9],Toxicity (T) observed toward murine macrophages [10],IC50 [11],also measured
O=C(/C=C/c1ccc(OC(F)(F)F)cc1)/C=C/c1ccc(OC(F)(F)F)cc1 [1s],> 64 µM,0.5 µM,1.8 µM,32.8 µM,,,,,,,IC50 [2]: > 64 µM
O=C(/C=C/c1ccccc1Cl)/C=C/c1ccccc1Cl [1e],6.8 µM,7.8 µM,12 µM,29.4 µM,7.4 ± 1.7 µM,7.8 ± 1 µM,> 200 µM,> 37.5 µM,T2 (T2 = 16),3.6 ± 0.1 µM,
O=C(/C=C/c1c(Cl)cccc1Cl)/C=C/c1c(Cl)cccc1Cl [1h],32.5 µM,> 64 µM,39.5 µM,> 64 µM,,,,> 6.2 µM,T1 (T1 = 64),,"presence of crystals, concentration range [12]: 0.8 to 200 µM"
O=C(/C=C/c1ccc(Cl)cc1)/C=C/c1ccc(Cl)cc1 [1f],> 60 µM,2.1 µM,35.6 µM,42.4 µM,6.3 ± 1.9 µM,3.7 ± 0.2 µM,> 200 µM,> 50 µM,,6.7 ± 0.6 µM,presence of crystals (asterisk mark) [12]: * (presence of crystals at > 50 µM)
CN(C)c1ccc([C@H]2CC(=O)C[C@H](c3ccc(N(C)C)cc3)S2)cc1 (racemic) [2u],,,,,,,,,,,"IC50 [1]: 43.1 µM; IC99 ± SD LV9 intramacrophage amastigotes [6]: 7.1 ± 15.9 µM; IC90 [6]: 5.6 ± 12.5 µM; IC50 ([6]; WT LV9, ± SD in Tables S5/S6, read-out: IC50 L. donovani intramacrophage amastigotes): 4.5 ± 10 µM; IC50 ([8]; LV9): 57.5 ± 10.2 µM; IC99 ± SD LV9 axenic amastigotes [8]: 91.1 ± 16.2 µM; IC90 [8]: 71.7 ± 12.7 µM; IC50 [3]: 1.5 µM; IC50 [4]: 2.5 µM; observed macrophage death / lysis observed at ([9]; bracketed value after the intramacrophage IC50 (Table S5), Table S6): 100 µM; CC50 [13]: 5 µM"
"C[C@@H]1[C@H](O)[C@@H](C)/C=C/C=C/C=C/C=C/C=C/C=C/C=C/[C@H](O[C@@H]2O[C@H](C)[C@@H](O)[C@H](N)[C@@H]2O)C[C@@H]2O[C@](O)(C[C@@H](O)C[C@@H](O)[C@H](O)CC[C@@H](O)C[C@@H](O)CC(=O)O[C@H]1C)C[C@H](O)[C@H]2C(=O)O [Amphotericin B, reference compound]",,,,> 64 µM,0.04 µM,,0.024 µM,,,0.04 ± 0.01 µM,"IC50 ([6]; Leishmania donovani, as worded in footnote a of Table S5, value stands in a middle column of the table, read-out: IC50 against leishmanial WT and HePC-R intramacrophagic amastigotes): 0.08 ± 0.024 µM; IC90 ([6]; Leishmania donovani): 0.05 µM; IC99 ± SD LV9 intramacrophage amastigotes [6]: 0.07 µM; IC90 ([8]; Leishmania donovani): 0.03 µM; IC99 ± SD LV9 axenic amastigotes [8]: 0.039 µM"
N#Cc1ccc(/C=C/C(=O)/C=C/c2ccc(C#N)cc2)cc1 [1t],5.1 µM,1.5 µM,11.9 µM,57.1 µM,> 50 µM,2.4 ± 0.1 µM,,> 100 µM,T2 (T2 = 16),6.6 ± 0.6 µM,IC50 ± SD L. donovani axenic amastigotes ([8]; LV9): T at 6.25-200 µM

# Source: PMC11013284, “Chemoselective Synthesis and Anti-Kinetoplastidal Properties of 2,6-Diaryl-4H-tetrahydro-thiopyran-4-one S-Oxides: Their Interplay in a Cascade of Redox Reactions from Diarylideneacetones” (Molecules, 2024)
